Here are results for 22 molecules from ChEMBL document CHEMBL3739321, “Multicomponent reaction-based synthesis and biological evaluation of tricyclic heterofused quinolines with multi-trypanosomatid activity” (Eur J Med Chem, 2015).

In data set [1] the test system is Leishmania infantum. In words: Potency index, ratio of potassium antimony (III) tartarate hydrate IC50 to compound IC50 for promastigote stage of Leishmania infantum MCAN/ES/92/BCN722. In kind it is functional.
Data set [2] relates to Trypanosoma brucei. In words: Potency index, ratio of nifurtimox IC50 to compound IC50 for bloodstream form of Trypanosoma brucei 221. In kind it is functional.
The subject of data set [3] is Trypanosoma cruzi. Put plainly: Potency index, ratio of benzanidazole IC50 to compound IC50 for epimastigote stage of Trypanosoma cruzi MHOM/ES/2203/BCN590. In kind it is functional.
The target of data set [4] is Leishmania infantum. Put plainly: Leishmanicidal activity against promastigote stage of Leishmania infantum MCAN/ES/92/BCN722 after 48 hrs by acid phosphatase based assay. In kind it is functional, organism-based.
A short description of data set [5]: Selectivity index, ratio of IC50 for rat L6 cells to IC50 for promastigote stage of Leishmania infantum MCAN/ES/92/BCN722. In kind it is toxicity, cell-based.
The test system of data set [6] is L6. In words: Cytotoxicity against rat L6 cells after 6 days by resazurin staining based fluorescence plate reader assay. Type of data set: cell-based.

`N#Cc1ccc(-c2nc3ccc(Cl)cc3c3c2CCN3)cc1`: the “Ratio IC50” value in data set [1] is reported as “<=5”.

For the molecule `OCCCc1cc2cc(Cl)ccc2nc1-c1cccs1`, in data set [1], the “Ratio IC50” value is “<=5”. In the case of `NCc1ccc2nc(-c3ccc(Cl)cc3)c3c(c2c1)N(Cc1ccccc1)CCC3`, the “Ratio IC50” value is on record as “<=5” in data set [1] and 2 in data set [2]. For `Clc1ccc2nc(-c3cccs3)c(CCCN3CCCC3)cc2c1`, the “Ratio IC50” value in data set [1] is reported as “<=5”. Still for that read-out and setting: the same measure for `N#Cc1ccc(-c2nc3ccc(Cl)cc3c3c2CCCCN3)cc1`: “<=5”. Consider `NCc1ccc(-c2nc3ccc(Cl)cc3c3c2CCCO3)cc1`, for which the results for the “Ratio IC50” value in data set [1] and in data set [2] were “<=5” and 2, respectively. `N#Cc1ccc([C@H]2Nc3ccc(Cl)cc3[C@@H]3OCCC[C@H]23)cc1`: the “Ratio IC50” value in data set [1] is “<=5”.

Take `Clc1ccc2nc(-c3cccs3)c3c(c2c1)OCCC3`: the “Ratio IC50” value in data set [1] is given as “<=5”.

For the molecule `NCc1ccc(-c2nc3ccc(Cl)cc3c3c2CCCCN3)cc1`, the “Ratio IC50” value in data set [1] was “<=5”; in data set [2], 2. `CCN(CC)CCCc1cc2cc(Cl)ccc2nc1-c1cccs1`: in data set [1], the “Ratio IC50” value is reported as “<=5”.

As to `NCc1ccc(-c2nc3ccc(Cl)cc3c3c2CCN3)cc1`, the figures for the “Ratio IC50” value in data set [1] and in data set [2] were “<=5” and 2, respectively. Take `N#Cc1ccc(-c2nc3ccc(Cl)cc3c3c2CCCN3)cc1`: the “Ratio IC50” value in data set [1] is listed as “<=5”.

`N#Cc1ccc(-c2nc3cc(Cl)ccc3cc2CCCN)cc1`: the “Ratio IC50” value in data set [1] is listed as “<=5”. `Clc1ccc2nc(-c3ccco3)c3c(c2c1)OCCC3`: the “Ratio IC50” value in data set [1] is listed as “<=5”.

Turning to `N#Cc1ccc(-c2nc3ccc(Cl)cc3c3c2CCCO3)cc1`, the “Ratio IC50” value in data set [1] was “<=5”.

In the case of `NCc1ccc(-c2nc3cc(Cl)ccc3c3c2CCCN3)cc1`, the “Ratio IC50” value in data set [1] is on record as “<=5”; in data set [2] it was 2. For the molecule `N#CCCc1cc2cc(Cl)ccc2nc1-c1cccs1`, in data set [1], the “Ratio IC50” value was “<=5”.

For the molecule `NCc1ccc(-c2nc3ccc(Cl)cc3c3c2CCCN3Cc2ccccc2)cc1`, the “Ratio IC50” value was “<=5” in data set [1], 4 in data set [3] and 2 in data set [2].

As for `N#Cc1ccc(-c2nc3cc(Cl)ccc3c3c2CCCN3)cc1`, in data set [1], the “Ratio IC50” value is given as “<=5”. The same measure, in the same setting: the same measure for `OCCCc1cc2cc(Cl)ccc2nc1-c1ccco1`: “<=5”.

On to `NCc1ccc(-c2nc3ccc(Cl)cc3c3c2CCCN3)cc1`, for which the figures for the “Ratio IC50” value in data set [1] and in data set [2] were “<=5” and 2, respectively. One may read the IC50 as the concentration that inhibits the measured activity by half. A low value points to greater potency in that assay. In the case of POTASSIUM ANTIMONYL TARTRATE TRIHYDRATE, the IC50 in data set [4] was 24.3 µM; in data set [6], 3.27 µM. Besides, in data set [5], the “Ratio IC50” value stood at 0.1.
